The target of assay [1] is T1, AChE from electric eel (EeAChE) (Electrophorus electricus, UniProt O42275).
T1 construct: purchased Merck (Prague, Czech Republic)
The assay can be described thus: Inhibition of AChE, modified Ellman's spectrophotometric method. The format is biochemical, electric eel (Electrophorus electricus L.). As to conditions: for IC50: EeAChE, Ellman's method, mean ± SD, n = three independent experiments. An excerpt: (§1) The heterocycles 3 were screened for their ability to interfere with the function of AChE from electric eel (EeAChE) and BChE from equine serum (EqBChE) using Ellman’s method (Table 1). Their activities are expressed as the concentration producing 50% inhibition of enzymatic activity (IC50). In addition, we calculated selectivity indexes (SI) that quantify the selectivity for AChE as more inhibited cholinesterase. SI is the ratio of IC50 for BChE/IC50 for AChE.
(§2) Enzyme inhibition activity of 3 quantified as IC50 values was determined spectrophotometrically using modified Ellman’s method. […] The enzyme activity is measured indirectly by determination of 5-mercapto-2-nitrobenzoic acid ion formed after reaction of the thiol reagent 5,5′-disulfanediyl-bis(2-nitrobenzoic acid) (DTNB) and thiocholine, a product of acetylthiocholine (ATCh) and butyrylthiocholine (BTCh) as substrates for hydrolysis by AChE and BChE, respectively.
(§3) The enzyme activity in final reaction mixture (2000 µL) was 0.2 U/mL, concentration of ATCh (or BTCh) 40 µM and concentration of DTNB 100 µM for all reactions. The compounds 3 were dissolved in DMSO and then diluted in demineralized water (conductivity 3 μS, equipment supplier BKG Water Treatment, Hradec Králové, Czech Republic) to the concentration of 1000 µM. […] The final concentration of DMSO was 0.2%. All experiments were carried in triplicates. The average values of reaction rate (v0-uninhibited reaction, vi-inhibited reaction) were used for construction of the dependence v0/vi vs. concentration of inhibitor. From obtained equation of regression curve, IC50 values were calculated.
(§4) Acetylcholinesterase was used from electric eel (Electrophorus electricus L.; EeAChE) and butyrylcholinesterase originated from equine serum (EqBChE).

In assay [2] the target is T2, BChE from equine serum (EqBChE) (Equus caballus, UniProt P81908).
T2 construct: butyrylcholinesterase originated from equine serum (EqBChE); purchased Merck (Prague, Czech Republic); host or cells: equine serum
The assay is described as follows: Inhibition of BChE, modified Ellman's spectrophotometric method. As to conditions: EqBChE, Ellman's method; mean ± SD, n = three independent experiments. Type of assay: biochemical.
From the text: as §1, §2, §3, §4

T1 sequence (O42275 24-633): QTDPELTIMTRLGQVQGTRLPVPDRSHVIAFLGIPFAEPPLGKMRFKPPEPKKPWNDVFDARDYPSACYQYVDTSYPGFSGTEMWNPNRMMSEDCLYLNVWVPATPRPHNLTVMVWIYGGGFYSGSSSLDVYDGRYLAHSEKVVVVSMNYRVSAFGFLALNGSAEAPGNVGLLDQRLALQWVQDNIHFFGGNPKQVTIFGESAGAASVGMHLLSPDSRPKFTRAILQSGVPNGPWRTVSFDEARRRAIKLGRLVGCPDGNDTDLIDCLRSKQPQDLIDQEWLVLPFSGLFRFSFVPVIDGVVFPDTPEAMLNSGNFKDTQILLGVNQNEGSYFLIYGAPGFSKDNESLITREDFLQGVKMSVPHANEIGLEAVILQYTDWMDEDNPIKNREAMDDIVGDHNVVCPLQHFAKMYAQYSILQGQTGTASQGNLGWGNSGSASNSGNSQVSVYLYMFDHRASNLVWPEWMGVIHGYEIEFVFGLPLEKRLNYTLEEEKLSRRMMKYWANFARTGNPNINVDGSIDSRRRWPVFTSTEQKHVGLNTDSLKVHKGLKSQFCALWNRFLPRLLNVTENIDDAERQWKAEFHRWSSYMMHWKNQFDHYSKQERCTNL
T2 sequence (P81908 whole entry): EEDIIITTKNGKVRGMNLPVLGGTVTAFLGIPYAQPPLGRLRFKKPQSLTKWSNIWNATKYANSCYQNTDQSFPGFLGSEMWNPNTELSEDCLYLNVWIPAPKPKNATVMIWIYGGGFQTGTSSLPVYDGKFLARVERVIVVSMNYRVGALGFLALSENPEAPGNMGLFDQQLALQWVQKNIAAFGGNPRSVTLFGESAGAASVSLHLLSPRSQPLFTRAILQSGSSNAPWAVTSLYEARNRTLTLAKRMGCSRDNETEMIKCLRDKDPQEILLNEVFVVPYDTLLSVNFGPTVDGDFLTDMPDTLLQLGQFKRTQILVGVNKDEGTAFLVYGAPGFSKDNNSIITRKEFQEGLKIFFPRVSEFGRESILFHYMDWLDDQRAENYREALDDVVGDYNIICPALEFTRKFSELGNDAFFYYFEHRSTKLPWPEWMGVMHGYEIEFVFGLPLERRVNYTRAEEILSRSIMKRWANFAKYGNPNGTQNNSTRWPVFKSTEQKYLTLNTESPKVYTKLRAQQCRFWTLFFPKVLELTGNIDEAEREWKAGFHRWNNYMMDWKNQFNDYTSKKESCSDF

In the case of `CCCCCCCCCCCCNc1nnc(-c2ccccc2)o1` [3a, N-Dodecyl-5-phenyl-1,3,4-oxadiazol-2-amine], in assay [1], the half-maximal inhibitory concentration (IC50) came out at 40.1 ± 0.54 µM and the “BChE/AChE Ratio (selectivity index, IC50 for BChE/IC50 for AChE)” value is recorded as 3.7. The compound also gave a 50% inhibitory concentration (IC50) in assay [2] of 149 ± 1.69 µM.

For the compound `CCCCCCCCCCCCNc1nnc(-c2ccc(C)cc2)o1` [3b, N-Dodecyl-5-(p-tolyl)-1,3,4-oxadiazol-2-amine], in assay [1], the IC50 is 34.6 ± 0.96 µM and the “BChE/AChE Ratio (selectivity index, IC50 for BChE/IC50 for AChE)” value worked out at 2.6. In assay [2], this compound showed an IC50 of 90 ± 2.35 µM.

Turning to `CCCCCCCCCCCCNc1nnc(-c2ccc(OC)cc2)o1` [3c, N-Dodecyl-5-(4-methoxyphenyl)-1,3,4-oxadiazol-2-amine], in assay [1], the 50% inhibitory concentration (IC50) was 33.86 ± 0.27 µM and the “BChE/AChE Ratio (selectivity index, IC50 for BChE/IC50 for AChE)” value was determined as 6.6. The same compound showed a half-maximal inhibitory concentration (IC50) in assay [2] of 225 ± 11 µM.

As for `CCCCCCCCCCCCNc1nnc(-c2ccc(C(C)(C)C)cc2)o1` [3d, 5-[4-(tert-Butyl)phenyl]-N-dodecyl-1,3,4-oxadiazol-2-amine], in assay [1], the IC50 was 65.2 ± 0.72 µM and the “BChE/AChE Ratio (selectivity index, IC50 for BChE/IC50 for AChE)” value was 2.3. Moreover, the concentration for half-maximal inhibition (IC50) in assay [2] was 152 ± 6.02 µM.

On to `CCCCCCCCCCCCNc1nnc(-c2ccc([N+](=O)[O-])cc2)o1` [3e, N-Dodecyl-5-(4-nitrophenyl)-1,3,4-oxadiazol-2-amine], for which, in assay [1], the IC50 turned out to be 70.46 ± 0.59 µM and the “BChE/AChE Ratio (selectivity index, IC50 for BChE/IC50 for AChE)” value was 1.5. In assay [2], this compound came in with an IC50 of 105.2 ± 0.94 µM.

Turning to `CCCCCCCCCCCCNc1nnc(-c2ccc(N(C)C)cc2)o1` [3f, 5-[4-(Dimethylamino)phenyl]-N-dodecyl-1,3,4-oxadiazol-2-amine], in assay [1], 87.99 ± 0.81 µM corresponded to half-maximal inhibition (IC50) and the “BChE/AChE Ratio (selectivity index, IC50 for BChE/IC50 for AChE)” value was determined as 3.6. The compound also had a 50% inhibitory concentration (IC50) in assay [2] of 316 ± 6.22 µM.

As for `CCCCCCCCCCCCNc1nnc(-c2ccc(F)cc2)o1` [3g, N-Dodecyl-5-(4-fluorophenyl)-1,3,4-oxadiazol-2-amine], in assay [1], half-maximal inhibition (IC50) required 36.7 ± 1.59 µM and the “BChE/AChE Ratio (selectivity index, IC50 for BChE/IC50 for AChE)” value came out at 7.3. For the same compound, the IC50 in assay [2] was found to be 266.7 ± 2.59 µM.

Regarding `CCCCCCCCCCCCNc1nnc(-c2ccc(Cl)cc2)o1` [3h, 5-(4-Chlorophenyl)-N-dodecyl-1,3,4-oxadiazol-2-amine], in assay [1], the midpoint of inhibition, the IC50, lay at 50.2 ± 1.88 µM and the “BChE/AChE Ratio (selectivity index, IC50 for BChE/IC50 for AChE)” value is 8.8. Besides, in assay [2], the IC50 is 444 ± 8.5 µM.

Regarding `CCCCCCCCCCCCNc1nnc(-c2ccc(Br)cc2)o1` [3i, 5-(4-Bromophenyl)-N-dodecyl-1,3,4-oxadiazol-2-amine], in assay [1], the IC50 came out at 40 ± 0.98 µM and the “BChE/AChE Ratio (selectivity index, IC50 for BChE/IC50 for AChE)” value stood at 9.2. For the same compound, in assay [2], 369 ± 5.82 µM corresponded to half-maximal inhibition (IC50).

As for `CCCCCCCCCCCCNc1nnc(-c2ccc(I)cc2)o1` [3j, N-Dodecyl-5-(4-iodophenyl)-1,3,4-oxadiazol-2-amine], in assay [1], it took 37.8 ± 1.83 µM to reach half-maximal inhibition (IC50) and the “BChE/AChE Ratio (selectivity index, IC50 for BChE/IC50 for AChE)” value is reported as 12.7. The IC50 in assay [2] came out at 482 ± 6.15 µM.

Take `CCCCCCCCCCCCNc1nnc(-c2cc([N+](=O)[O-])cc([N+](=O)[O-])c2)o1` [3k, 5-(3,5-Dinitrophenyl)-N-dodecyl-1,3,4-oxadiazol-2-amine]: in assay [1], 40.98 ± 0.11 µM corresponded to half-maximal inhibition (IC50) and the “BChE/AChE Ratio (selectivity index, IC50 for BChE/IC50 for AChE)” value is listed as 9.4. For the same compound, in assay [2], the IC50 is 384 ± 5.34 µM.

As to `CCCCCCCCCCCCNc1nnc(-c2ccncc2)o1` [3l, N-Dodecyl-5-(pyridin-4-yl)-1,3,4-oxadiazol-2-amine], the “fold lower AChE inhibition, oxadiazole vs. thiadiazole 3t” value in assay [1] (3t vs. 3l) was 3.9 ×. For the same compound, in assay [1], the 50% inhibitory concentration (IC50) was 50.2 ± 0.79 µM and the “BChE/AChE Ratio (selectivity index, IC50 for BChE/IC50 for AChE)” value came to 4.4. In addition, the half-inhibitory concentration (IC50) in assay [2] is 223 ± 1.54 µM.

For `CCCCCCCCCCCCNc1nnc(-c2cccnc2)o1` [3m, N-Dodecyl-5-(pyridin-3-yl)-1,3,4-oxadiazol-2-amine], in assay [1], the midpoint of inhibition, the IC50, lay at 64.2 ± 0.93 µM and the “BChE/AChE Ratio (selectivity index, IC50 for BChE/IC50 for AChE)” value is listed as 5.8. This compound returned an IC50 in assay [2] of 369 ± 3.83 µM.

On to `CCCCCCCCCCCCNc1nnc(-c2ccccn2)o1` [3n, N-Dodecyl-5-(pyridin-2-yl)-1,3,4-oxadiazol-2-amine], for which, in assay [1], the 50% inhibitory concentration (IC50) turned out to be 60.5 ± 2.42 µM and the “BChE/AChE Ratio (selectivity index, IC50 for BChE/IC50 for AChE)” value was 5.2. In assay [2], this compound came in with a half-maximal inhibitory concentration (IC50) of 315.4 ± 1.96 µM.

As for `CCCCCCCCCCCCNc1nnc(-c2ccncn2)o1` [3o, N-Dodecyl-5-(pyrimidin-4-yl)-1,3,4-oxadiazol-2-amine], in assay [1], the IC50 was found to be 45.5 µM and the “BChE/AChE Ratio (selectivity index, IC50 for BChE/IC50 for AChE)” value worked out at 6.6. The IC50 in assay [2] turned out to be 298.3 ± 2.19 µM.

As for `CCCCCCCCCCCCNc1nnc(-c2cnccn2)o1` [3p, N-Dodecyl-5-(pyrazin-2-yl)-1,3,4-oxadiazol-2-amine], in assay [1], half-maximal inhibition (IC50) required 92.1 ± 6.11 µM and the “BChE/AChE Ratio (selectivity index, IC50 for BChE/IC50 for AChE)” value is recorded as 4.9. Besides, the IC50 in assay [2] was determined as 452 ± 59.3 µM.

For the compound `CCCCCCCCCCCCNc1nnc(-c2ccnc(Br)c2)o1` [3q, 5-(2-Bromopyridin-4-yl)-N-dodecyl-1,3,4-oxadiazol-2-amine], in assay [1], half-maximal inhibition (IC50) required 73.4 ± 2.06 µM and the “BChE/AChE Ratio (selectivity index, IC50 for BChE/IC50 for AChE)” value is recorded as 3.1. In assay [2], this compound displayed a half-inhibitory concentration (IC50) of 224.2 ± 1.29 µM.

Turning to `CCCCCCCCCCCCNc1nnc(-c2ccnnc2)o1` [3r, N-Dodecyl-5-(pyridazin-4-yl)-1,3,4-oxadiazol-2-amine], in assay [1], the IC50 was determined as 81.5 ± 4.14 µM and the “BChE/AChE Ratio (selectivity index, IC50 for BChE/IC50 for AChE)” value stood at 2.9. Also, the IC50 in assay [2] came to 238 ± 13.8 µM.

Consider `CCCCCCCCCCCCSc1nnc(-c2ccncc2)o1` [3s, 2-(Dodecylthio)-5-(pyridin-4-yl)-1,3,4-oxadiazole], for which the IC50 was 91.6 ± 7.14 µM in assay [1] and over 500 µM in assay [2]. The “BChE/AChE Ratio (selectivity index, IC50 for BChE/IC50 for AChE)” value in assay [1] is on record as over 5.5.

As to `CCCCCCCCCCCCc1nnc(-c2ccncc2)o1` [3u, 2-Dodecyl-5-(pyridin-4-yl)-1,3,4-oxadiazole], in assay [1], the midpoint of inhibition, the IC50, lay at 99.2 ± 3.26 µM and the “BChE/AChE Ratio (selectivity index, IC50 for BChE/IC50 for AChE)” value was determined as 2.9. The half-maximal inhibitory concentration (IC50) in assay [2] is 289 ± 1.55 µM.
